Source: paper PMC6812009, “Covalent Aurora A regulation by the metabolic integrator coenzyme A” (Redox Biology, 2019)

How the values were obtained:
Assay in all cases: Kinase profiling screen (radioactive filter-binding assay)
Type in all cases: biochemical
[1] = biological target: T1, TBK1 (Homo sapiens, UniProt Q9UHD2); settings: 100 μM compound, 50 μM ATP; read-out: Kinase activity, % of activity in the absence of inhibitor
T1 sequence (Q9UHD2 1-729): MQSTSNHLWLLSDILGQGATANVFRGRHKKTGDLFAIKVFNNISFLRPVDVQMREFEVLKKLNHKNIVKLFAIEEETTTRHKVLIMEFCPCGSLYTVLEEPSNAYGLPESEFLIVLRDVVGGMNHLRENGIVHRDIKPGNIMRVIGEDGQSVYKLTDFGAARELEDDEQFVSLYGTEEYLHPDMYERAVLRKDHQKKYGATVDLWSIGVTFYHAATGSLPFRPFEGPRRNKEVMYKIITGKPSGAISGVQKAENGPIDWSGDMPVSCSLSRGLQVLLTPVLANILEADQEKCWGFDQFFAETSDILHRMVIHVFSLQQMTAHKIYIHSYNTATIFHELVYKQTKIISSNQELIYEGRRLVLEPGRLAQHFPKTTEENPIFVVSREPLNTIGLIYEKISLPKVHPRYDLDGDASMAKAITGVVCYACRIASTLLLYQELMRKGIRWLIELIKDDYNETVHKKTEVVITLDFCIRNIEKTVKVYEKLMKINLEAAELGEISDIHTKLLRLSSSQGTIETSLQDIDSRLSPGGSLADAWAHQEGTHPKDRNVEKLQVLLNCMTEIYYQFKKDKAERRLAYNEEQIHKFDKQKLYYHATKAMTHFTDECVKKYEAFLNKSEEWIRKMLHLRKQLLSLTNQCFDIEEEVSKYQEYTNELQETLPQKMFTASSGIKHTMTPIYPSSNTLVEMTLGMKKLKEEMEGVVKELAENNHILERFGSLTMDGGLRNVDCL
Method: (§1) Profiling of 117 protein kinases with CoA, dpCoA and ADP was carried out at the International Centre for Protein Kinase Profiling at the University of Dundee. Each compound was tested in vitro, in duplicate, at 100 μM final concentration using recombinant kinases, model substrates and optimal concentrations of ATP. Bacterially expressed full-length His-Aurora A was used to determine the IC50 value for CoA (in the presence or absence of DTT), dpCoA, ADP and desulfo-CoA. The assay was performed in the presence of 5 μM competing ATP. To examine whether the inhibitory effect of CoA on Aurora A is modulated by TPX2, IC50 values for CoA were also generated in the presence and absence of 1 μg TPX2 (residues 1–43) fragment.

[2] = biological target: MEKK1 (Homo sapiens, UniProt Q13233); settings: 100 μM compound, 20 μM ATP; read-out: Kinase activity, % of activity in the absence of inhibitor
Method: as §1

[3] = biological target: BRK (Homo sapiens, UniProt Q13882); settings: 100 μM compound, 20 μM ATP; read-out: Kinase activity, % of activity in the absence of inhibitor
Sequence of BRK (Q13882 whole entry): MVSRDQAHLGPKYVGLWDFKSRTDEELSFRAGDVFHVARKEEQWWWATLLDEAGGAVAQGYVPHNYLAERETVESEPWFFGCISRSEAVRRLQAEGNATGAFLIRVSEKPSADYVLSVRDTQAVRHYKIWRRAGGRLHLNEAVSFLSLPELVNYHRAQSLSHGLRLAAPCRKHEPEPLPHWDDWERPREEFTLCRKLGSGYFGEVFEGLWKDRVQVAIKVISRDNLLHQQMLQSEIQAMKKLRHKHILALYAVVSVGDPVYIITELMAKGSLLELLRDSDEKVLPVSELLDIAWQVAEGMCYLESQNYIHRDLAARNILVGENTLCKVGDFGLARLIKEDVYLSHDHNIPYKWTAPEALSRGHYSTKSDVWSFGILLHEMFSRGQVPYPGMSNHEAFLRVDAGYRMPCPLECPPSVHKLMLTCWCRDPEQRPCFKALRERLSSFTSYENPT
Method: as §1

[4] = biological target: MAPKAP-K3 (Homo sapiens, UniProt Q16644); settings: 100 μM compound, 20 μM ATP; read-out: Kinase activity, % of activity in the absence of inhibitor
Sequence of MAPKAP-K3 (Q16644 whole entry): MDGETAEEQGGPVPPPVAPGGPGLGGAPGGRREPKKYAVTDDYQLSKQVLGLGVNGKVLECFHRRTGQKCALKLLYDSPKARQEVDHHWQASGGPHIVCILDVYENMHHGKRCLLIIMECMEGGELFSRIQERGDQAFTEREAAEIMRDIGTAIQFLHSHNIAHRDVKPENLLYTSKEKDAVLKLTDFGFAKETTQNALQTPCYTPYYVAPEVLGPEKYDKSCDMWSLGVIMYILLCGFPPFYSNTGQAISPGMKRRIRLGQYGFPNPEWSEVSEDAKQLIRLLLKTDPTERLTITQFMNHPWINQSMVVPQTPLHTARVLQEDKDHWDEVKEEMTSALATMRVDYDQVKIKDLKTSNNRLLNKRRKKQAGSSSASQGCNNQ
Method: as §1

[5] = biological target: DYRK1A (Homo sapiens, UniProt Q13627); settings: 100 μM compound, 50 μM ATP; read-out: Kinase activity, % of activity in the absence of inhibitor
Method: as §1

[6] = biological target: T2, DYRK3 (Homo sapiens, UniProt O43781); settings: 100 μM compound, 5 μM ATP; read-out: Kinase activity, % of activity in the absence of inhibitor
T2 sequence (O43781 1-588): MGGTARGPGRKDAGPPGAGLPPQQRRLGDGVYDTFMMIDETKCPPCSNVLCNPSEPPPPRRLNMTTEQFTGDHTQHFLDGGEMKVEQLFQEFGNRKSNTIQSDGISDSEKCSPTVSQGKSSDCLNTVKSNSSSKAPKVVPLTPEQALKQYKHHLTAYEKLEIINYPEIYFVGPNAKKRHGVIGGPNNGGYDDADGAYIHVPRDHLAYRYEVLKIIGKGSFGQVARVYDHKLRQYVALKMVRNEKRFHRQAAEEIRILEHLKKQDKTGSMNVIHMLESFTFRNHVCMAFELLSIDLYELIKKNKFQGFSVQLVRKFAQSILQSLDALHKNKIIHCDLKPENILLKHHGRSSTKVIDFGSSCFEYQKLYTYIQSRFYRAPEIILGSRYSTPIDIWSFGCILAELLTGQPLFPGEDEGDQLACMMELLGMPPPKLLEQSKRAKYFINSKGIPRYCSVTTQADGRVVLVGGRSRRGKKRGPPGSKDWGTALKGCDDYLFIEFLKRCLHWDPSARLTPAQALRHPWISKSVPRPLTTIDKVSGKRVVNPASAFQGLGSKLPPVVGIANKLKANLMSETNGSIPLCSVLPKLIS
Method: as §1

[7] = biological target: HIPK2 (Homo sapiens, UniProt Q9H2X6); settings: 100 μM compound, 5 μM ATP; read-out: Kinase activity, % of activity in the absence of inhibitor
Method: as §1

[8] = biological target: MELK (Homo sapiens, UniProt Q14680); settings: 100 μM compound, 50 μM ATP; read-out: Kinase activity, % of activity in the absence of inhibitor
Sequence of MELK (Q14680 whole entry): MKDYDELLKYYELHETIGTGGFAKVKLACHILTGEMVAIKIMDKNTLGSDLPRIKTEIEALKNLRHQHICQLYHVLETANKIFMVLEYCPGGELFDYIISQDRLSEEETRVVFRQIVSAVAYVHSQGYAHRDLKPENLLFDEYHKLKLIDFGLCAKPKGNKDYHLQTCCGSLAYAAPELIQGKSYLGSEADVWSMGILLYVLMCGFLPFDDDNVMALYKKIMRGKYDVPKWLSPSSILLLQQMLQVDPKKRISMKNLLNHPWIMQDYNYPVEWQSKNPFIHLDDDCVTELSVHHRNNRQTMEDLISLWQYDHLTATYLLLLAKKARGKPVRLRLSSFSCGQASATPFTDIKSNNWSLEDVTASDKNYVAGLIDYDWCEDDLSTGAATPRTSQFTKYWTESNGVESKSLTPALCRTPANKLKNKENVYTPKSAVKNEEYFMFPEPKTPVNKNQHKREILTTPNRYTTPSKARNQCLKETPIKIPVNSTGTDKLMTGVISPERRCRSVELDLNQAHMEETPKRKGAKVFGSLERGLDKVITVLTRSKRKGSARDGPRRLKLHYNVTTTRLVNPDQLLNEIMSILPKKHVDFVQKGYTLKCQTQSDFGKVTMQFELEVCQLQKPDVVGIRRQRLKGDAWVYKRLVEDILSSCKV
Method: as §1

[9] = biological target: SYK (Homo sapiens, UniProt P43405); settings: 100 μM compound, 20 μM ATP; read-out: Kinase activity, % of activity in the absence of inhibitor
Method: as §1

[10] = biological target: Aurora B (Homo sapiens, UniProt Q96GD4); settings: for activity at 100 µM: 100 μM compound, 20 μM ATP, read-out: Kinase activity, % of activity in the absence of inhibitor
Method: as §1

[11] = biological target: CK1δ (Homo sapiens, UniProt P48730); settings: 100 μM compound, 20 μM ATP; read-out: Kinase activity, % of activity in the absence of inhibitor
Sequence of CK1δ (P48730 whole entry): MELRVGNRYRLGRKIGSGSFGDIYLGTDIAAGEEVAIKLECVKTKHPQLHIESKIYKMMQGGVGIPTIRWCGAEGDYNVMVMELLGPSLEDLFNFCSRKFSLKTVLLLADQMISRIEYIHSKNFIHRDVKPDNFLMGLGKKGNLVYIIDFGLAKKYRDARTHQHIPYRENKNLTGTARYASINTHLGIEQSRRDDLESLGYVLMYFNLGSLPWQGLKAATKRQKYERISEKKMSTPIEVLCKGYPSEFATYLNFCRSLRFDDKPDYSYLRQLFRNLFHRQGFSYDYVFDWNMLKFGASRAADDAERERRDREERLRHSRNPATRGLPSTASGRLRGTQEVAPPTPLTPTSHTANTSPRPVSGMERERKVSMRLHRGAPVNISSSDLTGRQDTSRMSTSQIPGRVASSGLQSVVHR
Method: as §1

[12] = biological target: YES1 (Homo sapiens, UniProt P07947); settings: for activity at 100 µM: 100 μM compound, 20 μM ATP, read-out: Kinase activity, % of activity in the absence of inhibitor
Sequence of YES1 (P07947 whole entry): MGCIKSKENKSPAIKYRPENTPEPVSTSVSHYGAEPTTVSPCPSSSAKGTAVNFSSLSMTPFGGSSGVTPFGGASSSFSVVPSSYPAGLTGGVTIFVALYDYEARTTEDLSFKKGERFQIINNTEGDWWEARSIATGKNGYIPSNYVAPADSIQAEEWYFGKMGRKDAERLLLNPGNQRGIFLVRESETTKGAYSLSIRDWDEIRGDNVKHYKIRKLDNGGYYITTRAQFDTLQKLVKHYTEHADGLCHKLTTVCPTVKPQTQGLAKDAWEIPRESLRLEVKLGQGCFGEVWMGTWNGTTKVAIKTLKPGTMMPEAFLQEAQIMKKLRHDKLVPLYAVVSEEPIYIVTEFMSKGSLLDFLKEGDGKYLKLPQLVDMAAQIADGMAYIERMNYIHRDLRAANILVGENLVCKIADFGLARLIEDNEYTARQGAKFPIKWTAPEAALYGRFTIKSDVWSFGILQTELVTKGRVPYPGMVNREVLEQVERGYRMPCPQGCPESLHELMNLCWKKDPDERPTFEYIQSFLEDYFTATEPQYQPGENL
Method: as §1

[13] = biological target: PIM1 (Homo sapiens, UniProt P11309); settings: 100 μM compound, 20 μM ATP; read-out: Kinase activity, % of activity in the absence of inhibitor
Method: as §1

[14] = biological target: HIPK1 (Homo sapiens, UniProt Q86Z02); settings: 100 μM compound, 20 μM ATP; read-out: Kinase activity, % of activity in the absence of inhibitor
Method: as §1

[15] = biological target: RSK1 (Homo sapiens, UniProt Q15418); settings: 100 μM compound, 50 μM ATP; read-out: Kinase activity, % of activity in the absence of inhibitor
Sequence of RSK1 (Q15418 whole entry): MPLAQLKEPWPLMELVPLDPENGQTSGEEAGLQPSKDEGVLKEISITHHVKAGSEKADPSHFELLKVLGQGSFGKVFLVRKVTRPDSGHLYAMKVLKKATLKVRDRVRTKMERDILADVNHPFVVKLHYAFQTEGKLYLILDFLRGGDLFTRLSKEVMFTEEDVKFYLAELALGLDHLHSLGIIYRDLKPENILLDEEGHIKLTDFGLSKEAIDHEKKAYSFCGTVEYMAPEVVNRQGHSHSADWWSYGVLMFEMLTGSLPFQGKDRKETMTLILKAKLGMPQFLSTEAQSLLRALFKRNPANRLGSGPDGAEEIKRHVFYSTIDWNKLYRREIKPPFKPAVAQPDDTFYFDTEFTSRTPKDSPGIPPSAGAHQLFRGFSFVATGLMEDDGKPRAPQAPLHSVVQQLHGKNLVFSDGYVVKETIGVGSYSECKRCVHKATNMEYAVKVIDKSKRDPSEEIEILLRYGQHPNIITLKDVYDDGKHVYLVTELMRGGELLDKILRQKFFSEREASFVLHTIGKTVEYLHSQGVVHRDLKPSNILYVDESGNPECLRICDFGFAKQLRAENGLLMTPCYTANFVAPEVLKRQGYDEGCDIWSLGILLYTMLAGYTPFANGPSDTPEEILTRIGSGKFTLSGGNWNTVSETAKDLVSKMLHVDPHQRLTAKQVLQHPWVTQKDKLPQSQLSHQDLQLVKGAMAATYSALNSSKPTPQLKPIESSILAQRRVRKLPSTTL
Method: as §1

[16] = biological target: PKCβ (Homo sapiens, UniProt P05771); settings: 100 μM compound, 50 μM ATP; read-out: Kinase activity, % of activity in the absence of inhibitor
Sequence of PKCβ (P05771 whole entry): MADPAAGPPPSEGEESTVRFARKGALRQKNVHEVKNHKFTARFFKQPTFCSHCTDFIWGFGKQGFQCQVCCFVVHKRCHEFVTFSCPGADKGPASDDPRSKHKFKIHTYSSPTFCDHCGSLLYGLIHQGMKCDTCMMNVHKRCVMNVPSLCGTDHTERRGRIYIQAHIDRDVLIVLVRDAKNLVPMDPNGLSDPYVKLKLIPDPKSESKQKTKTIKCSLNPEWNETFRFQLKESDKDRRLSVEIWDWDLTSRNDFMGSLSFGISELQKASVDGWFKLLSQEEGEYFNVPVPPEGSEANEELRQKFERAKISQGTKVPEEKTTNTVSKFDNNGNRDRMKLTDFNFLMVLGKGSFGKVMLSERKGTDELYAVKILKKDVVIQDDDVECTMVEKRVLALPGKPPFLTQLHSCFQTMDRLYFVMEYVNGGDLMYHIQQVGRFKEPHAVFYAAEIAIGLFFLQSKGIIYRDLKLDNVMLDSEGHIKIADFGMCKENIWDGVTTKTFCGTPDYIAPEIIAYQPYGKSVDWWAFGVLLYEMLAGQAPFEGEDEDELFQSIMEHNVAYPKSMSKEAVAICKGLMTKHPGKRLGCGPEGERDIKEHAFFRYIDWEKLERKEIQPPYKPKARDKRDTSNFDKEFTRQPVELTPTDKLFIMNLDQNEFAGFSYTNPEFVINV
Method: as §1

[17] = biological target: MLK1 (Homo sapiens, UniProt P80192); settings: 100 μM compound, 20 μM ATP; read-out: Kinase activity, % of activity in the absence of inhibitor
Sequence of MLK1 (P80192 whole entry): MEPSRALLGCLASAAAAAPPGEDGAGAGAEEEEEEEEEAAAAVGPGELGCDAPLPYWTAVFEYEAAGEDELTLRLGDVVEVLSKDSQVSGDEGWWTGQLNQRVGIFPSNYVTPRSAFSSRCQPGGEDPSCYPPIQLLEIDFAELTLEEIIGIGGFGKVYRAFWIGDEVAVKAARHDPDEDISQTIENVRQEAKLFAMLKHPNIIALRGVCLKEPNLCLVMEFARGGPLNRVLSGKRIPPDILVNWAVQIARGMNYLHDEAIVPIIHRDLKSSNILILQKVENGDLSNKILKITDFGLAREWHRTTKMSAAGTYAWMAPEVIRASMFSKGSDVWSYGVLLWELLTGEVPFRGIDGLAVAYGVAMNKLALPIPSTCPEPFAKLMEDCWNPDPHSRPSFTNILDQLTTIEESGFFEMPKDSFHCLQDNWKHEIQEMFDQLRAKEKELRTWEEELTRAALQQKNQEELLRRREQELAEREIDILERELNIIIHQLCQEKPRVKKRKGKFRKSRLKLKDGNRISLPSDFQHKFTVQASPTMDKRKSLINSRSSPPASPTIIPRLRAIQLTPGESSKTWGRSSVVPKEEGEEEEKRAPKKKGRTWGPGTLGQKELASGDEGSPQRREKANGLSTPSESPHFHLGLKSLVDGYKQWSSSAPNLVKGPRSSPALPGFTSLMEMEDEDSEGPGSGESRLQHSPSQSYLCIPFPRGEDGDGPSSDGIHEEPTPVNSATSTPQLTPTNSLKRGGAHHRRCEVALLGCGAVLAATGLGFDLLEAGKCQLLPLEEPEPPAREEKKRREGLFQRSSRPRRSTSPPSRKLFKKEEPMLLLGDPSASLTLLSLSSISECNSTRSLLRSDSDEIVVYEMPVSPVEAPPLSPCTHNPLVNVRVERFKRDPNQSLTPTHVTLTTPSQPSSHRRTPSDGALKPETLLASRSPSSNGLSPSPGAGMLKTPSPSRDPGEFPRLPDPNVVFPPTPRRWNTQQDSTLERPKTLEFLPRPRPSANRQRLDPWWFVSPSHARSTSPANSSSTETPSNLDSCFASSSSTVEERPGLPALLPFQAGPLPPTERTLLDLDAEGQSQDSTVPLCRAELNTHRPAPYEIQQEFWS
Method: as §1

[18] = biological target: EF2K (Homo sapiens, UniProt O00418); settings: 100 μM compound, 5 μM ATP; read-out: Kinase activity, % of activity in the absence of inhibitor
Method: as §1

| SMILES | activity at 100 µM [1] [%] | activity at 100 µM [2] [%] | activity at 100 µM [3] [%] | activity at 100 µM [4] [%] | activity at 100 µM [5] [%] | activity at 100 µM [6] [%] | activity at 100 µM [7] [%] | activity at 100 µM [8] [%] | activity at 100 µM [9] [%] | activity at 100 µM [10] [%] | activity at 100 µM [11] [%] | activity at 100 µM [12] [%] | activity at 100 µM [13] [%] | activity at 100 µM [14] [%] | activity at 100 µM [15] [%] | activity at 100 µM [16] [%] | activity at 100 µM [17] [%] | activity at 100 µM [18] [%] | other results |
| --- | --- | --- | --- | --- | --- | --- | --- | --- | --- | --- | --- | --- | --- | --- | --- | --- | --- | --- | --- |
| Nc1ncnc2c1ncn2C1OC(COP(=O)(O)OP(=O)(O)O)C(O)C1O (stereo not drawn) [ADP] | 95.1 | 68.1 | 41.3 | 25.7 | 75.9 | 16.2 | 16.5 | 63.5 | 70.9 | 47.8 | 57.6 | 18.6 | 46.1 | 31.7 | 58.5 | 79.2 | 41.4 | 86.2 | – |
| CC(C)(COP(=O)(O)OP(=O)(O)OCC1OC(n2cnc3c(N)ncnc32)C(O)C1O)C(O)C(=O)NCCC(=O)NCCS (stereo not drawn) [dpCoA, dephospho-CoA] | 110 | 106 | 83.1 | 63 | 90.2 | 91.2 | 73.4 | 104 | 106 | 55.1 | 80.4 | 11.5 | 97.7 | 92.8 | 98.9 | 105 | 76 | 103 | – |
| CC(C)(COP(=O)(O)OP(=O)(O)OC[C@H]1O[C@@H](n2cnc3c(N)ncnc32)[C@H](O)[C@@H]1OP(=O)(O)O)[C@@H](O)C(=O)NCCC(=O)NCCS [CoA, Coenzyme A] | 106 | 96.3 | 114 | 98.4 | 93.1 | 95.1 | 153 | 76.3 | 98.3 | 54.3 | 80.8 | 49 | 103 | 115 | 97.2 | 118 | 110 | 67.1 | inhibition at 100 µM ([10]; at 100 μM compound): 46%; inhibition at 100 µM ([12]; 100 μM CoA, kinase profiling screen, read-out: YES inhibition): ≤ 50%; YES inhibition (in words) ([12]; kinase profiling, 100 μM): modestly inhibited |
